From US9976141B2, “Compositions and methods for inhibiting gene expression of Hif2alpha” (Arrowhead Madison Inc., priority 2015, dated 2018)

System: human (tumor) Hif2α (EPAS1) mRNA
Assay: Hif2α knockdown in orthotopic RCC tumor bearing mice, single injection of RNAi trigger-delivery polymer conjugate, RT-qPCR (Table 7)
Type: in vivo
Conditions: RNAi trigger 80 μg, polymer 126 400 μg; single tail vein injection; relative to isotonic glucose
Method: A pCR3.1 expression vector expressing the reporter gene secreted alkaline phosphatase (SEAP) under the CMV promoter was prepared by directional cloning of the SEAP coding sequence PCR amplified from Clontech's pSEAP2-basic vector. Convenient restriction sites were added onto primers used to amplify the SEAP coding sequence for cloning into the pCR3.1 vector (Invitrogen). The resultant construct pCR3-SEAP was used to create a SEAP-expressing A498 ccRCC cell line. Briefly, pCR3-SEAP plasmid was transfected into A498 ccRCC cells by electroporation following manufacturer's recommendation. Stable transfectants were selected by G418 resistance. Selected A498-SEAP clones were evaluated for SEAP expression and integration stability.
Female athymic nude mice were anesthetized with ˜3% isoflourane and placed in the right lateral decubitus position. A small, 0.5-1 cm, longitudinally abdominal incision in the left flank was made. Using a moist cotton swab, the left kidney was lifted out of the peritoneum and gently stabilized. Just before injection, a 1.0 ml syringe was filled with the cell/Matrigel mixture and a 27 gauge needle catheter was attached to the syringe tip. The filled syringe was then attached to a syringe pump (Harvard Apparatus, model PHD2000) and primed to remove air. The tip of a 27-gauge needle catheter attached to a syringe was inserted just below the renal capsule near the caudal pole and the tip of the needle was then carefully advanced cranially along the capsule 3-4 mm. A 10 μl aliquot of 2:1 (vol:vol) cell/matrigel mixture containing about 300,000 cells was slowly injected into the kidney parenchyma using a syringe pump. The needle was left in the kidney for 15-20 seconds to ensure the injection was complete. The needle was then removed from the kidney and a cotton swab was placed over the injection site for 30 seconds to prevent leakage of the cells or bleeding. The kidney was then gently placed back into the abdomen and the abdominal wall was closed. Serum was collected every 7-14 days after implantation to monitor tumor growth using a commercial SEAP assay kit. For most studies, tumor mice were used 5-6 weeks after implantation, when tumor measurements were typically around 4-8 mm.
RGD targeted HiF2α-RNAi trigger delivery conjugates. Delivery polymers were modified using RGD-PEG-HyNic, RGD-PEG-ACit-PNP, or RDG-PEG-FCitFP-TFP and PEG-dipeptide modifying agents. The indicated amount of polymer 126 or 100A polymer was modified with 8×PEG12-ACit-PABC-PNP/0.5× aldehyde-PEG24-FCit-PABC-PNP (with RGD mimic #1-PEG-HyNic using protocol #1) and the indicated amount of the indicated Hif2α RNAi trigger. Polymer 064 was modified according to protocol 7. Kidney RCC tumor-bearing mice were generated as described and treated with a single tail vein injection of isotonic glucose (G1) or the indicated Hif2α RNAi trigger-delivery polymer conjugate. Mice were euthanized at the indicated time after injection and total RNA was prepared from kidney tumor using Trizol reagent following manufacturer's recommendation. Relative HiF2α mRNA levels were determined by RT-qPCR as described below and compared to mice treated with delivery buffer (isotonic glucose) only.
In preparation for quantitative PCR, total RNA was isolated from tissue samples homogenized in TriReagent (Molecular Research Center, Cincinnati, Ohio) following the manufacturer's protocol. Approximately 500 ng RNA was reverse-transcribed using the High Capacity cDNA Reverse Transcription Kit (Life Technologies). For human (tumor) Hif2α (EPAS1) expression, pre-manufactured TaqMan gene expression assays for human Hif2α (Catalog #4331182) and CycA (PPIA) Catalog #: 4326316E) were used in biplex reactions in triplicate using TaqMan Gene Expression Master Mix (Life Technologies) or VeriQuest Probe Master Mix (Affymetrix). […]

| Substance | Relative Expression day 4 (Hif2α mRNA in kidney tumor) |
| --- | --- |
| AD01023 (antisense TCUAGCAACAAAACCUUAATT; sense UUAAGGUUUUGUUGCUAGAT; Hif2alpha RNAi agent antisense strand; modified_base 2,4,8,10,12,14,16,18 /mod_base = “2′-deoxy-2′-fluoro corresponding nucleoside”; modified_base 3,5,7,9,11,13,15,17,19 /mod_base = “2′-O-methyl corresponding nucleoside”; modified_base 6 /mod_base = “2′-3′ seco corresponding nucleotide”; modified_base 21 /mod_base = “5′-phosphorothioate corresponding nucleotide”; Hif2alpha RNAi agent sense strand; modified_base 1,3,5,7,9,11,13,15,17,19 /mod_base = “2′-deoxy-2′-fluoro corresponding nucleoside”; modified_base 2,4,6,8,10,12,14,16,18 /mod_base = “2′-O-methyl corresponding nucleoside”; modified_b) | 0.93 |
| AD01024 (antisense TCUAGCAACAAAACCUUAATT; sense UUAAGGUUUUGUUGCUAGAT; Hif2alpha RNAi agent antisense strand; modified_base 2,4,6,8,10,12,14,16,18 /mod_base = “2′-deoxy-2′-fluoro corresponding nucleoside”; modified_base 3,5,9,11,13,15,17,19 /mod_base = “2′-O-methyl corresponding nucleoside”; modified_base 7 /mod_base = “2′-3′ seco corresponding nucleotide”; modified_base 21 /mod_base = “5′-phosphorothioate corresponding nucleotide”; Hif2alpha RNAi agent sense strand; modified_base 1,3,5,7,9,11,13,15,17,19 /mod_base = “2′-deoxy-2′-fluoro corresponding nucleoside”; modified_base 2,4,6,8,10,12,14,16,18 /mod_base = “2′-O-methyl corresponding nucleoside”; modified_b) | 0.51 |
| AD01025 (antisense TCUAGCAACAAAACCUUAATT; sense UUAAGGUUUUGUUGCUAGAT; Hif2alpha RNAi agent antisense strand; modified_base 2,4,6,8,10,12,14,16,18 /mod_base = “2′-deoxy-2′-fluoro corresponding nucleoside”; modified_base 3,5,7,9,11,13,15,17,19 /mod_base = “2′-O-methyl corresponding nucleoside”; modified_base 21 /mod_base = “5′-phosphorothioate corresponding nucleotide”; Hif2alpha RNAi agent sense strand; modified_base 1,3,5,7,9,11,13,15,17,19 /mod_base = “2′-deoxy-2′-fluoro corresponding nucleoside”; modified_base 2,4,6,8,10,12,14,16,18 /mod_base = “2′-O-methyl corresponding nucleoside”; modified_base 20 /mod_base = “3′-3′-linked nucleotide”; modified_base 1 /mo) | 0.34 |
| AD01026 (antisense TAAAUCGUUACGUUGACAGTT; sense CUGUCAACGUAACGAUUUAT; Hif2alpha RNAi agent antisense strand; modified_base 2,4,8,10,12,14,16,18 /mod_base = “2′-deoxy-2′-fluoro corresponding nucleoside”; modified_base 3,5,7,9,11,13,15,17,19 /mod_base = “2′-O-methyl corresponding nucleoside”; modified_base 6 /mod_base = “2′-3′ seco corresponding nucleotide”; modified_base 21 /mod_base = “5′-phosphorothioate corresponding nucleotide”; Hif2alpha RNAi agent sense strand; modified_base 1,3,5,7,9,11,13,15,17,19 /mod_base = “2′-deoxy-2′-fluoro corresponding nucleoside”; modified_base 2,4,6,8,10,12,14,16,18 /mod_base = “2′-O-methyl corresponding nucleoside”; modified_b) | 0.97 |
| AD01027 (antisense TAAAUCGUUACGUUGACAGTT; sense CUGUCAACGUAACGAUUUAT; Hif2alpha RNAi agent antisense strand; modified_base 2,4,6,8,10,12,14,16,18 /mod_base = “2′-deoxy-2′-fluoro corresponding nucleoside”; modified_base 3,5,9,11,13,15,17,19 /mod_base = “2′-O-methyl corresponding nucleoside”; modified_base 7 /mod_base = “2′-3′ seco corresponding nucleotide”; modified_base 21 /mod_base = “5′-phosphorothioate corresponding nucleotide”; Hif2alpha RNAi agent sense strand; modified_base 1,3,5,7,9,11,13,15,17,19 /mod_base = “2′-deoxy-2′-fluoro corresponding nucleoside”; modified_base 2,4,6,8,10,12,14,16,18 /mod_base = “2′-O-methyl corresponding nucleoside”; modified_b) | 0.92 |
| AD01028 (antisense TAAAUCGUUACGUUGACAGTT; sense CUGUCAACGUAACGAUUUAT; Hif2alpha RNAi agent antisense strand; modified_base 2,4,6,8,10,12,14,16,18 /mod_base = “2′-deoxy-2′-fluoro corresponding nucleoside”; modified_base 3,5,7,9,11,13,15,17,19 /mod_base = “2′-O-methyl corresponding nucleoside”; modified_base 21 /mod_base = “5′-phosphorothioate corresponding nucleotide”; Hif2alpha RNAi agent sense strand; modified_base 1,3,5,7,9,11,13,15,17,19 /mod_base = “2′-deoxy-2′-fluoro corresponding nucleoside”; modified_base 2,4,6,8,10,12,14,16,18 /mod_base = “2′-O-methyl corresponding nucleoside”; modified_base 20 /mod_base = “3′-3′-linked nucleotide”; modified_base 1 /mo) | 0.39 |
| AD01029 (antisense TUUCAUGAAAUCGUUACGUTT; sense ACGUAACGAUUUCAUGAAAT; Hif2alpha RNAi agent antisense strand; modified_base 2,4,8,10,12,14,16,18 /mod_base = “2′-deoxy-2′-fluoro corresponding nucleoside”; modified_base 3,5,7,9,11,13,15,17,19 /mod_base = “2′-O-methyl corresponding nucleoside”; modified_base 6 /mod_base = “2′-3′ seco corresponding nucleotide”; modified_base 21 /mod_base = “5′-phosphorothioate corresponding nucleotide”; Hif2alpha RNAi agent sense strand; modified_base 1,3,5,7,9,11,13,15,17,19 /mod_base = “2′-deoxy-2′-fluoro corresponding nucleoside”; modified_base 2,4,6,8,10,12,14,16,18 /mod_base = “2′-O-methyl corresponding nucleoside”; modified_b) | 0.94 |
